Laboratory results reported in PMC8779831, “Enzyme-Responsive Amphiphilic Peptide Nanoparticles for Biocompatible and Efficient Drug Delivery” (Pharmaceutics, 2022).

Tests used:
[1] = Dynamic light scattering (DLS) size of peptide nanoparticles; format: physicochemical; details: empty peptide nanoparticles 0.5 mg/mL, Tables S1 and S2, mean ± SEM (n=3)
Method: (§1) The size of the peptide nanoparticles at concentrations of 0.5 mg/mL was analyzed by dynamic laser light scattering (DLS) with ELS-Z2 (Photal, Otsuka Electronics Co., Ltd., Otsuka, Japan) and a Nano-ZS (Malvern Instruments Ltd., London, UK). The ξ-potential of the peptide nanoparticles was measured using a Nano-ZS. To confirm their stability, the LL and DD nanoparticles were monitored using a DLS instrument every 5 days for 30 days. The morphology of the LL peptide nanoparticles was measured using a field emission scanning electron microscope (FE-SEM). Thereafter, the dried samples of peptide nanoparticles were coated with osmium and analyzed by FE-SEM (Hitachi, Tokyo, Japan) under a 5–10 kV acceleration voltage. The self-assembled structure of the peptide nanoparticles was analyzed using CD spectroscopy (J-1000, Jasco, Hachioji, Japan). The LL and DD peptide nanoparticle solutions were measured in a quartz cuvette at wavelengths of 190 to 260 nm.
(§2) Doxorubicin (Dox) was encapsulated in the RH-(GFLG)3 peptide nanoparticles to evaluate their potential as drug delivery carriers. […] The prepared Dox-loaded RH-(GFLG)3 nanoparticles (LL-Dox, LD-Dox, DL-Dox, and DD-Dox) were stored at 4 °C, and their size diameter and ξ-potential were measured using DLS and zeta instruments of Nano ZS90 (Malvern, Worcestershire, UK) to confirm the formulation of the nanostructure.

cathepsin B = biological target: T1, cathepsin B (Homo sapiens, UniProt P07858); assay: Enzyme-responsiveness test with cathepsin B, MALDI-TOF MS; format: in vitro ADME; details: 0.02 μM cathepsin B in activation buffer, 37 °C, 6 h; versus control without enzyme
T1 construct: purchased Sigma-Aldrich (Seoul, Korea)
Method: The enzyme-responsive ability of RH-(GFLG)3 was analyzed using matrix assisted laser mass spectroscopy (MALDI-TOF, Voyager TOF Mass Spectrometer, Applied Biosystems Inc., Carlsbad, CA, USA). The LL, LD, DL, and DD peptides were treated with 0.02 μM of the enzyme cathepsin B in an activation buffer at 37 °C for 6 h. To compare enzyme-responsive ability, control groups without enzyme were treated identically in an activation buffer at 37 °C for 6 h. The prepared peptides were measured using MALDI-TOF (Voyager TOF Mass Spectrometer) in a α-cyano-4-hydroxycinnamic acid (CHCA) matrix.

HeLa cells [2] = assay: Cellular uptake of Nile Red-tagged nanoparticles (confocal microscopy, FACS); format: cell-based; details: Nile Red-tagged nanoparticles 0.2 mg/mL, 6 h confocal microscopy (16 h FACS)
Method: The cellular uptake ability of the peptide nanoparticle was analyzed using confocal microscopy (Zeiss International, Oberkochen, Germany) and fluorescence-activated cell sorting (FACS) (BD Biosciences, San Jose, CA). For confocal microscopy assays, 1.0 × 10^4 cells/well were seeded in an 8-well confocal plate and incubated for 24 h. Nile Red-tagged LL, DL, DL, and DD peptide nanoparticles were treated to a final concentration of 0.2 mg/mL, and the cells were incubated for 6 h. After incubation, the cell nuclei were stained with 20 μM Hoechst 33324 for 15 min. The prepared cells were observed using confocal microscopy. In the FACS assay, 1.0 × 10^6 cells/well were seeded in 6-well microplate and incubated for 24 h. After incubation, the Nile Red-tagged peptide nanoparticles were treated to a final concentration of 0.2 mg/mL, and cells were incubated for 16 h. After incubation, the cells were washed twice using DPBS and harvested using trypsin-EDTA. The cells were collected by centrifugation (1500 rpm, 3 min) and resuspended in 500 μL of DPBS. The prepared samples were transferred to a FACS tube and analyzed using FACS.

[3] = FE-SEM morphology of peptide nanoparticles; format: physicochemical; details: dried samples, osmium coated, 5–10 kV
Method: as §1

HeLa cells [4] = assay: Cytotoxicity of peptide nanoparticles, WST-1 / MTT assay; format: cell-based; details: 24 h, highest concentration of 0.2 μg/μL, mean ± SEM (n = 3)
Method: (§3) The cytotoxicity of the RH-(GFLG)3 nanoparticles was examined using WST-1, LDH, and hemolysis assays. For the WST-1 assay, the HeLa cells were seeded to 1.0 × 10^4 cells/well in a 96-well microplate and incubated for 24 h. PEI 25kD and LL, LD, DL, and DD were prepared at various concentrations (0.025 to 0.2 μg/μL). PEI 25kD, a cationic polymer, was introduced as a positive control. After 24 h of incubation, 10 µL WST-1 was added to each well and incubated for 2 h. WST-1 formazan was measured using a VERASmax microplate reader (Molecular Devices, LLC, Sunnyvale, CA, USA) at an absorbance of 450 nm. For the LDH assay, 20% Tween-20 treated cells were examined as maximum LDH activated control to calculate the LDH activity (%) of samples. After 24 h incubation, 10 μL of the supernatant of each sample was collected and added to a working reagent containing 0.2 mM NADH and 2.5 mM sodium pyruvate in a 96-well microplate and incubated for 45 min at 37 °C. Finally, the LDH activity was quantified by measuring the absorbance at 490 nm using a microplate reader.

[5] = ξ-potential of peptide nanoparticles (Nano-ZS); format: physicochemical; details: empty peptide nanoparticles; Tables S1 and S2; mean ± SEM (n=3); in mV (unit assumed)
Method: as §1, §2

human RBCs = assay: Hemolysis assay; format: cell-based; details: 0.1 and 0.2 μg/μL, 2 h at 37 °C, absorbance 450 nm, Triton X-100 0.2% as maximum
Method: The hemolysis of LL, LD, DL, and DD nanoparticles was investigated using human blood cells. PEI 25kD was introduced as a positive control. Briefly, fresh human blood was obtained from healthy volunteers. Coagulation of human blood was prevented using ethylenediaminetetraacetic acid (EDTA). The human blood was centrifuged at 5000 rpm for 5 min to separate the red blood cells (RBCs) from the serum. The isolated RBCs were washed twice using PBS and diluted to 2.0 × 10^8 cells/mL in PBS. To evaluate the hemolytic activity, Triton X-100 0.2% treated samples were used as the maximum hemolytic activity control. A 0.25 mL volume of the prepared RBCs was mixed with 0.25 mL of each sample (final concentration of 0.1 μg/μL and 0.2 μg/μL, respectively). The mixed samples were incubated for 2 h at 37 °C. After incubation, the samples were centrifuged at 5000 rpm for 5 min, and […] of the supernatant of each sample was collected. The supernatant was diluted 10-fold using PBS to a final volume of 100 μL. The prepared supernatant solution was added to a 96-well microplate and measured at 450 nm using a VERSAmax microplate reader (Molecular Devices, San Jose, CA, USA).

[6] = Critical aggregation concentration with Nile Red probe; format: physicochemical
Method: The critical aggregation concentration (CAC) value of the RH-(GFLG)3 nanoparticles was analyzed using the hydrophobic probe Nile Red. Briefly, the peptide nanoparticles were prepared at various concentrations ranging from 0.001 to 0.3 mg/mL to make a final volume of 1 mL. Then, the prepared nanoparticle solutions were mixed with 5 μL of 40 μM Nile Red solution in ethanol to a final concentration of 0.2 μM. The samples were dried to remove the ethanol using nitrogen gas stream and incubated for 1 h at room temperature (25 °C). After incubation, prepared samples were measured using fluorescence spectroscopy (PerkinElmer, Waltham, MA, USA) at an excitation wavelength of 515 nm and emission wavelengths of 550–750 nm. The CAC of the peptide nanoparticles was analyzed by fluorescence intensity at 650 nm.

HeLa cells [7] = assay: Anticancer effect, MTT assay in HeLa cells; format: cell-based; details: HeLa, 24, 48 and 72 h, peptide without Dox
Method: (§4) The anticancer activity of Dox-loaded peptide nanoparticles in HeLa and SW480 cells was determined with an MTT assay. Cells were seeded to 1.0 × 10^4 cells/well in a 96-well microplate and incubated for 24 h. After incubation, the cells were treated using Free Dox and Dox-loaded RH-(GLFG)3 nanoparticles to a final concentration of 0.25–2 μM and incubated for 24–72 h. After incubation, the prepared samples were analyzed following the method described above. To understand the anticancer effect in tissue, 3D spheroids of HeLa cells were prepared as described above. The prepared 3D spheroids were treated with 1 μM Free Dox, DD-Dox, and LL-Dox and incubated for 1–7 days. The morphology of the 3D spheroids was observed using an objective microscope every day. After 7 days of incubation, the viability of the spheroids was analyzed using an MTT assay. The spheroids were added to the MTT solution (2 mg/mL in DPBS) and incubated for 4 h. The supernatant was removed, and 150 μL of DMSO was added to each sample. The prepared samples were measured using a micro reader (Molecular Devices, San Jose, CA, USA) at an absorbance of 570 nm.

SW480 cells = assay: Anticancer effect, MTT assay in SW480 cells; format: cell-based; details: SW480, 24, 48 and 72 h, peptide without Dox
Method: as §4

[8] = Storage stability of nanoparticles monitored by DLS; format: physicochemical; details: DLS every 5 days for 30 days at 4 °C; mean ± SEM (n = 3)
Method: as §1

HeLa cells [9] = assay: LDH assay (membrane damage); format: cell-based; details: 24 h, 0.025–0.2 μg/μL, relative to 20% Tween-20 control
Method: as §3

[10] = test system: SW480 cells in zebrafish larvae; assay: In vivo anticancer capability in zebrafish cancer model; details: micro-injection, observed 2 days after injection
Method: To examine the anticancer activity of the Dox-loaded RH-(GLFG)3 nanoparticles in vivo, we generated zebrafish cancer models using the SW480 cell line. Briefly, zebrafish eggs were incubated in a fish incubator for 2 days and dechorionated. The SW480 cells were stained using cell fluorescence tracker (cell tracker green CMFDA) for 30 min in a cell culture incubator. The labeled cells were then harvested using trypsin-EDTA and washed twice with PBS containing 10% FBS. The labeled cells were then injected into zebrafish larvae by micro-injection. The larvae were split in 96-well microplates containing TAP-water. After 2 days of incubation, Free Dox and Dox-loaded RH-(GLFG)3 nanoparticles (LL-Dox and DD-Dox) were injected into zebrafish larvae by micro-injection. After 2 days of incubation, the larvae were anesthetized using 0.04% tricaine and observed under a fluorescence microscope (Leica DMi8, Wetzlar, Germany).

HeLa cells [11] = assay: Cellular uptake of Dox-loaded nanoparticles, confocal microscopy; format: cell-based; details: 1 μM, 16 h (results text; method: 2 μM, 6 h)
Method: The cellular uptake of Dox-loaded RH-(GLFG)3 nanoparticles in HeLa cells was analyzed using confocal microscopy. HeLa cells were seeded to 1.0 × 10^4 cells/well in an 8-well confocal plate and incubated for 24 h. After incubation, the cells were treated using Free Dox, DD-Dox, and LL-Dox at a final concentration of 2 μM and incubated for 6 h. The nuclei of the cells were stained with 20 μM Hoechst 33324 for 15 min. The prepared cells were observed using confocal microscopy. To understand cellular uptake in tissue, we examined 3D spheroids of HeLa cells. For the formulation of the 3D spheroids, 1.0 × 10^4 cells were seeded in a round shaped 96-well plate coated with 1% agarose and incubated for 3 days. After incubation, the cells formed a globular shaped 3D tissue. The prepared 3D spheroids were treated using Free Dox, DD-Dox, and LL-Dox at a final concentration of 1 μM. The 3D spheroid medium was changed every 2 days for the tissue growth. After 7 days, the 3D spheroids were observed using confocal microscopy.

Hydrodynamic diameter [1]	Polydispersity index (PDI) [1]	degradation by cathepsin B (peak at 1433 m/z in MALDI-TOF mass spectrum) (cathepsin B)	size of globular nanostructure in FE-SEM images [3]	Ξ-Potential [5]	critical aggregation concentration (CAC) ([6]; Nile Red 0.2 μM, peptide 0.001–0.3 mg/mL, 1 h at 25 °C, fluorescence ex 515 nm, intensity at 650 nm)	CAC (printed in Figure 2E) ([6]; Nile Red probe, fluorescence at 650 nm)	nanoscale diameter during storage [8]	Molecule	cellular uptake ability (HeLa cells [2])	cytotoxicity (cell viability) (HeLa cells [4])	hemolysis (human RBCs)	cytotoxicity of peptide control groups (HeLa cells [7])	cytotoxicity of peptide control groups (SW480 cells)	LDH release (HeLa cells [9])	anticancer effect on cell tracker labelled SW480 cells (fluorescence) [10]	cellular uptake ability of Dox (HeLa cells [11])
118 ± 7.7 nm	0.245 ± 0.010	no peak at 1433 m/z	smaller than 100 nm	30.1 ± 0.4	around 0.02 mg/mL	0.02 µg/µL	less than 200 nm	Arg-His-(Gly-Phe-Lue-Gly)3 [LL]	higher uptake	negligible cytotoxicity	negligible hemolysis	negligible cytotoxicity	negligible cytotoxicity	negligible LDH release	–	–
–	–	–	–	–	–	–	–	COc1cccc2c1C(=O)c1c(O)c3c(c(O)c1C2=O)C[C@@](O)(C(=O)CO)C[C@@H]3O[C@H]1C[C@H](N)[C@H](O)[C@H](C)O1 [Free Dox, doxorubicin]	–	–	–	–	–	–	low anticancer effect	low cellular uptake ability
